Data from PubChem BioAssay (NCI).
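1) Cells in 96-well plates. 2) Compound, 48 h, 5 concentrations. 3) Linear interpolation between surrounding doses. 4) Unreached endpoint = highest concentration. The concentration for full growth arrest is given as TGI.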 Where a SMILES comes first, the peptide text is derived from it.

Assays:
Experiment in all cases: NCI tumour cell line growth inhibition, 48 h
[1] = system: IGROV1 ovarian
[2] = system: CAKI-1 renal
[3] = system: HT29 colon
[4] = system: T-47D breast
[5] = system: OVCAR-3 ovarian
[6] = system: U251 CNS
[7] = system: HL-60(TB) leukemia
[8] = system: MCF7 breast
[9] = system: DU-145 prostate
[10] = system: SK-MEL-2 melanoma
[11] = system: RXF 393 renal
[12] = system: MDA-N
[13] = system: HOP-62 NSCLC
[14] = system: HS 578T breast
[15] = system: UO-31 renal
[16] = system: HCT-116 colon
[17] = system: UACC-257 melanoma
[18] = system: SK-MEL-28 melanoma
[19] = system: K-562 leukemia
[20] = system: MDA-MB-231 breast
[21] = system: SNB-19 CNS
[22] = system: OVCAR-5 ovarian
[23] = system: SW-620 colon
[24] = system: PC-3 prostate
[25] = system: HOP-92 NSCLC
[26] = system: SF-539 CNS
[27] = system: OVCAR-8 ovarian
[28] = system: SNB-75 CNS
[29] = system: HCT-15 colon
[30] = system: ACHN renal
[31] = system: OVCAR-4 ovarian
[32] = system: SF-268 CNS
[33] = system: MALME-3M melanoma
[34] = system: SR leukemia
[35] = system: NCI-H522 lung
[36] = system: 786-0 renal
[37] = system: MOLT-4 leukemia
[38] = system: EKVX NSCLC
[39] = system: KM12 colon
[40] = system: CCRF-CEM leukemia
[41] = system: SK-MEL-5 melanoma
[42] = system: M14 melanoma
[43] = system: SN12C renal
[44] = system: NCI/ADR-RES ovarian
[45] = system: HCC-2998 colon
[46] = system: TK-10 renal
[47] = system: NCI-H460 lung
[48] = system: NCI-H23 lung
[49] = system: MDA-MB-435
[50] = system: SK-OV-3 ovarian
[51] = system: LOX IMVI melanoma
[52] = system: COLO 205 colon
[53] = system: RPMI-8226 leukemia
[54] = system: SF-295 CNS
[55] = system: A549 NSCLC
[56] = system: NCI-H226 lung
[57] = system: A498 renal
[58] = system: UACC-62 melanoma

Measured: TGI

CCOC(=O)C(NC(C)=O)(Nc1ccc(S(N)(=O)=O)cc1)C(F)(F)F (configuration not stated)
not listed: [58]
> 100 µM: all other assays above

NC(=O)C1CCCN1C(=O)C(N)Cc1ccccc1 (stereo not drawn) (H-Phe-Pro-NH2; configuration not given here)
not listed: [10] | [11] | [14] | [17] | [25] | [26] | [28] | [36] | [39] | [43] | [48] | [50] | [56]
> 100 µM: all other assays above
